Several values for one entry are separate records, joined by “and”; a condition that tells them apart may be missing. Equal entries are not always repeated.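 These data come from cells grown in 96-well plates and exposed to compound for 48 hours at five concentrations. Here, GI50 denotes the concentration required for 50% inhibition of growth. TGI is the concentration that stops growth completely.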
How the values were obtained:
Assay in all cases: NCI anticancer screen, dose series, 48 h
SNB-75 CNS = tested on: SNB-75 CNS
MDA-MB-231 breast = tested on: MDA-MB-231 breast
SK-MEL-28 melanoma = tested on: SK-MEL-28 melanoma
DU-145 prostate = tested on: DU-145 prostate
U251 CNS = tested on: U251 CNS
A549 NSCLC = tested on: A549 NSCLC
NCI-H460 lung = tested on: NCI-H460 lung
A498 renal = tested on: A498 renal
NCI/ADR-RES ovarian = tested on: NCI/ADR-RES ovarian
HOP-62 NSCLC = tested on: HOP-62 NSCLC

Row | SMILES | TGI (SNB-75 CNS) | TGI (MDA-MB-231 breast) [µM] | TGI (SK-MEL-28 melanoma) [µM] | TGI (DU-145 prostate) [µM] | TGI (U251 CNS) [µM] | TGI (A549 NSCLC) | TGI (NCI-H460 lung) [µM] | TGI (A498 renal) | TGI (NCI/ADR-RES ovarian) [µM] | TGI (HOP-62 NSCLC) | GI50 (SNB-75 CNS) [µM] | GI50 (MDA-MB-231 breast) [µM] | GI50 (SK-MEL-28 melanoma) [µM] | GI50 (DU-145 prostate) [µM] | GI50 (U251 CNS) [µM] | GI50 (A549 NSCLC) [µM] | GI50 (NCI-H460 lung) [µM] | GI50 (A498 renal) [µM] | GI50 (NCI/ADR-RES ovarian) [µM] | GI50 (HOP-62 NSCLC) [µM]
1 | C=CC1(C)CCC2C(=CCC3C2(C)CC(O)C(O)C3(C)COC2OC(CO)C(O)C(O)C2O)C1 (centres undefined) | > 100 µM | > 100 | > 100 | > 100 | > 100 | > 100 µM | > 100 | > 100 µM | > 100 | – | – | – | – | – | – | – | – | – | – | –
2 | O=S1OC(c2ccccc2)(c2ccccc2)C(c2ccccc2)(c2ccccc2)O1 | > 100 µM | – | > 100 | – | > 100 | > 100 µM | > 100 | > 100 µM | – | > 100 µM | – | – | – | – | – | – | – | – | – | –
3 | C/C(CN1C(=O)c2ccccc2C1=O)=N\NS(=O)(=O)c1ccc2ccccc2c1 | > 100 µM | – | > 100 | – | > 100 | > 100 µM | > 100 | > 100 µM | – | > 100 µM | – | – | – | – | – | – | – | – | – | –
4 | Nc1c(C(=O)Nc2cccc(Cl)c2)sc2nc3c(cc12)C(=O)CCC3 | 2.47 µM | > 100 | > 100 | > 100 | > 60.2 | > 100 µM | > 100 | – | > 100 | > 100 µM | 0.227 | 1.88 | 0.567 | 0.377 | 0.599 | 0.42 | 0.322 | 0.134 | 0.466 | 0.663
5 | C=CCC1(O)c2ccccc2C(=O)c2c(OCC(=O)OCC)ccc(OCC(=O)OCC)c21 (centres undefined) | – | > 100 | > 100 | > 100 | > 100 | > 100 µM | > 100 | > 100 µM | > 100 | > 100 µM | – | 25.6 | > 100 | > 100 | 81 | > 100 | 84.9 | > 100 | > 100 | > 100
6 | O=C(CCc1n[nH]c(=S)o1)Nc1cc(Cl)ccc1Cl | > 100 µM | – | > 100 | – | > 100 | > 100 µM | > 100 | > 100 µM | – | > 100 µM | – | – | – | – | – | – | – | – | – | –
7 | CC[C@@]1(OP(=O)(O)O)C(=O)OCc2c1cc1n(c2=O)Cc2cc3ccccc3nc2-1 | 3.31 µM and 17.3 µM | – | 57.7 | 0.598 | 0.747 | 7.33 µM and 12.3 µM | 0.666 | 0.559 µM and 0.96 µM | 0.715 | 1.47 µM and 0.248 µM | 0.143 | – | 1.86 | – | – | 0.12 | – | 0.128 | – | 0.0131
8 | Cc1ccc(S(=O)c2ccccc2[N+](=O)[O-])cc1 (centres undefined) | – | – | > 100 | – | > 100 | > 100 µM | > 100 | 88.1 µM | – | > 100 µM | – | – | – | – | – | – | – | – | – | –
9 | N#CC(C(=O)CCCC(=O)Nc1ccccc1[N+](=O)[O-])c1c(Cl)cccc1Cl (centres undefined) | > 100 µM | – | > 100 | – | > 100 | > 100 µM | > 100 | > 100 µM | – | > 100 µM | – | – | – | – | – | – | – | – | – | –
